The values below come from patent US4323568A, “Pharmaceutically active (omega-aminoalkoxy)bibenzyls” (Mitsubishi Chemical Industries Limited, priority 1977, dated 1982).

Structures can show the parent of a compound that is named as a salt.

Series [1] has as its system rabbit blood platelet aggregation. Description: inhibition of collagen-induced platelet aggregation in rabbit platelet-rich plasma (turbidometric method of Born). In kind it is cell-based. Particulars: Oryctolagus cuniculus, collagen 10 to 15 μg/ml, 37° C., 3 min preincubation, read-out: I50 (concentration inhibiting platelet aggregation by 50 percent). As for the experimental part: Evaluation of the compounds of this invention for their activity against platelet aggregation was carried out according to a turbidometric method described by G. V. R. Born, Nature 194 927 (1962). Platelet aggregation was measured using platelet-rich plasma prepared from citrated blood which was collected from a carotid artery of male white rabbits of Japanese native kind. A suspension of collagen (bovine Achilles tendon collagen, Sigma) in saline was used to cause platelet aggregation. The aggregation of rabbit blood platelet was induced by adding the suspension of collagen to give 10 to 15 μg collagen per milliliter. At this time, the tests were conducted at 37° C. at levels of 4×10^5 platelet/mm^3. A solution of compounds of this invention in saline was added to the platelet-rich plasma. After three minutes of preincubation with the platelet-rich plasma, collagen was added to cause platelet aggregation. Percent inhibition was calculated by comparison with controls.
Using the above procedure, the compounds of this invention were compared to aspirin.
(§1) The concentration of the compound in micromoles inhibiting platelet aggregation by 50 percent (I50) and LD50 which was calculated by Litchfield-Wilcoxon method are shown in Table 1.

A short description of series [2]: LD50 i.p. in mice, calculated by Litchfield-Wilcoxon method. Particulars: mouse, in vivo, ip, read-out: ID50 (the source's name). As for the experimental part:
as §1

With `CC(=O)Oc1ccccc1C(=O)O` [Aspirin, aspirin, reference compound], the IC50 in series [1] is 25 µM. For the compound `CN(C)CCOc1ccccc1CCc1ccccc1` [Example 1, 2-(2-dimethylaminoethoxy)bibenzyl hydrochloride], the IC50 in series [1] worked out at 0.6 µM. Also, the LD50 in series [2] was 165 mg/kg. As for `CN(C)CCCOc1ccccc1CCc1ccccc1` [Example 2, 2-(3-dimethylaminopropoxy)bibenzyl hydrochloride], the IC50 in series [1] was 0.6 µM.

Regarding `CN(C)CCCCOc1ccccc1CCc1ccccc1` [Example 3, 2-(4-dimethylaminobutoxy)bibenzyl], the IC50 in series [1] was determined as 0.6 µM. Further, the LD50 in series [2] was 215 mg/kg.

Consider `CN(C)CCCCCOc1ccccc1CCc1ccccc1` [Example 4, 2-(5-dimethylaminopentyloxy)bibenzyl], for which the IC50 in series [1] was determined as 0.8 µM. Also, the LD50 in series [2] is 205 mg/kg. Turning to `CN(C)CCCCCCOc1ccccc1CCc1ccccc1` [Example 5, 2-(6-dimethylaminohexyloxy)bibenzyl], in series [1], the IC50 was determined as 1 µM. Take `CNCCCCOc1ccccc1CCc1ccccc1` [Example 6, 2-(4-methylaminobutoxy)bibenzyl]: in series [1], the IC50 worked out at 7 µM.

Take `CCCCN(C)CCCCOc1ccccc1CCc1ccccc1` [Example 7, 2-[4-(N-methyl-N-butylamino)butoxy]bibenzyl]: the IC50 in series [1] was determined as 3 µM. Take `CN(CCO)CCCCOc1ccccc1CCc1ccccc1` [Example 8, 2-{4-[N-methyl-N-(2-hydroxyethyl)amino]butoxy}bibenzyl]: the IC50 in series [1] was determined as 2 µM.

Consider `c1ccc(CCc2ccccc2OCCCCN2CCCCC2)cc1` [Example 9, 2-(4-piperidinobutoxy)bibenzyl], for which, in series [1], the IC50 is 1 µM. For `c1ccc(CCc2ccccc2OCCCCN2CCOCC2)cc1` [Example 10, 2-(4-morpholinobutoxy)bibenzyl], the IC50 in series [1] is 10 µM. Regarding `c1ccc(CCc2ccccc2OCCCCN2CCNCC2)cc1` [Example 11, 2-[4-(1-piperazinyl)butoxy]bibenzyl dihydrochloride], the IC50 in series [1] was 2 µM. For the compound `c1ccc(CCc2ccccc2OCCCCN2CCCC2)cc1` [Example 12, 2-[4-(1-pyrrolidinyl)butoxy]bibenzyl], in series [1], the IC50 was 0.7 µM.

With `OCCN1CCN(CCCCOc2ccccc2CCc2ccccc2)CC1` [Example 13, 2-{4-[4-(2-hydroxyethyl)-1-piperazinyl]butoxy}bibenzyl], in series [1], the IC50 was 3 µM. Turning to `OCCN(CCO)CCCCOc1ccccc1CCc1ccccc1` [Example 14, 2-[4-bis(2-hydroxyethyl)aminobutoxy]bibenzyl], the IC50 in series [1] is 5 µM. Turning to `CCN(CC)CCOc1ccccc1CCc1ccccc1` [Example 15, 2-(2-diethylaminoethoxy)bibenzyl], the IC50 in series [1] was 0.5 µM.

Turning to `CCN(CC)CCCOc1ccccc1CCc1ccccc1` [Example 16, 2-(3-diethylaminopropoxy)bibenzyl], the IC50 in series [1] came out at 0.5 µM. Further, in series [2], the LD50 was 187 mg/kg. For `CCN(CC)CCCCOc1ccccc1CCc1ccccc1` [Example 17, 2-(4-diethylaminobutoxy)bibenzyl], in series [1], the IC50 amounted to 0.8 µM.

Take `CCN(CC)CCCCCOc1ccccc1CCc1ccccc1` [Example 18, 2-(5-diethylaminopentyloxy)bibenzyl]: in series [1], the IC50 is 1 µM.

As to `CCN(CC)CCCCCCOc1ccccc1CCc1ccccc1` [Example 19, 2-(6-diethylaminohexyloxy)bibenzyl], in series [1], the IC50 worked out at 1 µM. The same measure, in the same setting: for `CN(C)CCCOc1ccc(CCc2ccccc2)cc1` [Example 20, 4-(3-dimethylaminopropoxy)bibenzyl] the value was 2 µM; for `CN(C)CCCCOc1ccc(CCc2ccccc2)cc1` [Example 21, 4-(4-dimethylaminobutoxy)bibenzyl], 2 µM.

As for `Cl.O=C(O)C1CCN(CCCCOc2ccccc2CCc2ccccc2)CC1` [Example 22, 2-[4-(4-carboxypiperidino)butoxy]bibenzyl hydrochloride], the IC50 in series [1] stood at 5.5 µM. Moreover, the LD50 in series [2] is 500 mg/kg. Take `NC(=O)C1CCN(CCCCOc2ccccc2CCc2ccccc2)CC1` [Example 24, 2-[4-(4-carbamoylpiperidino)butoxy]bibenzyl]: the IC50 in series [1] turned out to be 1.5 µM. The LD50 in series [2] is 500 mg/kg. As for `NC(=O)C1CCN(CCOc2ccccc2CCc2ccccc2)CC1` [Example 25, 2-[2-(4-carbamoylpiperidino)ethoxy]bibenzyl], in series [1], the IC50 turned out to be 2.5 µM. Still for that read-out and setting: with `CN(C)C(=O)C1CCN(CCCCOc2ccccc2CCc2ccccc2)CC1` [Example 26, 2-[4-(4-dimethylcarbamoylpiperidino)butoxy]bibenzyl hydrochloride] the figure was 3 µM.

Take `CCNC(=O)C1CCN(CCCCOc2ccccc2CCc2ccccc2)CC1` [Example 27, 2-[4-(4-ethylcarbamoylpiperidino)butoxy]bibenzyl]: the IC50 in series [1] was determined as 2.5 µM. Regarding `NC(=O)C1CCCN(CCCCOc2ccccc2CCc2ccccc2)C1` (stereo not shown) [Example 29, 2-[4-(3-carbamoylpiperidino)butoxy]bibenzyl], the IC50 in series [1] was 1.4 µM. For the same compound, in series [2], the LD50 was 270 mg/kg. For the compound `NC(=O)C1CCN(CCCOc2ccccc2CCc2ccccc2)CC1` [Example 30, 2-[3-(4-carbamoylpiperidino)propoxy]bibenzyl], in series [1], the IC50 is 2 µM.

Take `COc1ccccc1CCc1ccccc1OCCN(C)C` [Example 31, 2-(2-dimethylaminoethoxy)-2'-methoxybibenzyl]: the IC50 in series [1] amounted to 0.6 µM. Consider `COc1ccccc1CCc1ccccc1OCCCCN(C)C` [Example 32, 2-(4-dimethylaminobutoxy)-2'-methoxybibenzyl], for which the IC50 in series [1] was 0.9 µM. For the same compound, the LD50 in series [2] was 250 mg/kg. For the compound `COc1cccc(CCc2ccccc2OCCCCN(C)C)c1` [Example 34, 2-(4-dimethylaminobutoxy)-3'-methoxybibenzyl], in series [1], the IC50 worked out at 0.55 µM. Also, in series [2], the LD50 is 200 mg/kg. For the compound `COc1cccc(CCc2ccccc2OCCCCN2CCN(CCO)CC2)c1` [Example 35, 2-{4-[4-(2-hydroxyethyl)-1-piperazinyl]butoxy}-3'-methoxybibenzyl], in series [1], the IC50 stood at 1.2 µM. Same read-out and setting: with `CCOc1ccccc1CCc1ccccc1OCCCCN(CC)CC` [Example 37, 2-(4-diethylaminobutoxy)-2'-ethoxybibenzyl] the figure was 1 µM. For the compound `CN(C)CCCCOc1ccccc1CCc1ccccc1O` [Example 38, 2-(4-dimethylaminobutoxy)-2'-hydroxybibenzyl], the IC50 in series [1] is 0.9 µM. Moreover, the LD50 in series [2] was 167 mg/kg. For `COC(=O)c1ccccc1CCc1ccccc1OCCN(C)C` [Example 41, 2-(2-dimethylaminoethoxy)-2'-methoxycarbonylbibenzyl], in series [1], the IC50 turned out to be 0.5 µM. Also, the LD50 in series [2] was 130 mg/kg. Take `CN(C)CCCOc1ccccc1CCc1ccc(Cl)cc1` [Example 44, 2-(3-dimethylaminopropoxy)-4'-chlorobibenzyl]: in series [1], the IC50 came out at 0.6 µM. Moreover, in series [2], the LD50 is 185 mg/kg.

`OCCN1CCN(CCCCOc2ccccc2CCc2ccc(Cl)cc2)CC1` [Example 45, 2-{4-[4-(2-hydroxyethyl)-1-piperazinyl]butoxy}-4'-chlorobibenzyl]: in series [1], the IC50 turned out to be 3 µM. For `Clc1ccc(CCc2ccccc2OCCCCN2CCCC2)cc1` [Example 46, 2-[4-(1-pyrrolidinyl)butoxy]-4'-chlorobibenzyl], the IC50 in series [1] was determined as 1.3 µM. For the compound `CN(C)CCCCOc1ccccc1CCc1ccccc1Cl.Cl` [Example 47, 2-(4-dimethylaminobutoxy)-2'-chlorobibenzyl hydrochloride], in series [1], the IC50 is 0.5 µM. For the same compound, the LD50 in series [2] was 170 mg/kg. For the compound `CN(C)CCCCCCOc1ccccc1CCc1ccccc1Cl` [Example 51, 2-(6-dimethylaminohexyloxy)-2'-chlorobibenzyl], the IC50 in series [1] stood at 0.8 µM. In addition, the LD50 in series [2] was 250 mg/kg. As to `CN(C)CCCOc1ccccc1CCc1ccccc1Cl` [Example 52, 2-(3-dimethylaminopropoxy)-2'-chlorobibenzyl], in series [1], the IC50 was determined as 0.63 µM.

Regarding `CN(C)CCCOc1ccccc1CCc1ccc(Cl)c(Cl)c1.Cl` [Example 54, 2-(3-dimethylaminopropoxy)-3',4'-dichlorobibenzyl hydrochloride], the IC50 in series [1] was found to be 0.6 µM. Also, the LD50 in series [2] was 250 mg/kg.

Take `CN(C)CCCCOc1ccccc1CCc1ccc(F)cc1` [Example 55, 2-(4-dimethylaminobutoxy)-4'-fluorobibenzyl]: in series [1], the IC50 was 0.75 µM. In addition, the LD50 in series [2] is 185 mg/kg.

On to `NC(=O)C1CCN(CCCCOc2ccccc2CCc2ccc(F)cc2)CC1` [Example 56, 2-[4-(4-carbamoylpiperidino)butoxy]-4'-fluorobibenzyl], for which the IC50 in series [1] is 1.3 µM. For the same compound, in series [2], the LD50 is 450 mg/kg. For `OC1CCN(CCCCOc2ccccc2CCc2ccc(F)cc2)CC1` [Example 58, 2-[4-(4-hydroxypiperidino)butoxy]-4'-fluorobibenzyl], the IC50 in series [1] amounted to 1.1 µM. As for `Cc1ccccc1CCc1ccccc1OCCCCN(C)C` [Example 61, 2-(4-dimethylaminobutoxy)-2'-methylbibenzyl], the IC50 in series [1] came to 1.1 µM. As for `Cc1ccccc1CCc1ccccc1OCCCCN1CCC(C(N)=O)CC1` [Example 63, 2-[4-(4-carbamoylpiperidino)butoxy]-2'-methylbibenzyl], in series [1], the IC50 stood at 2 µM.

Take `CN(C)CCCOc1ccccc1CCc1ccc(N(C)C)cc1` [Example 64, 2-(3-dimethylaminopropoxy)-4'-dimethylaminobibenzyl]: the IC50 in series [1] was found to be 0.35 µM. In the case of `COc1cccc(CCc2ccccc2)c1OCCCCN(C)C` [Example 67, 2-(4-dimethylaminobutoxy)-3-methoxybibenzyl], in series [1], the IC50 is 3 µM.
